Read-outs that look alike come from different tables or passages of the source.
Experiments:
[1] = system: male Long-Evans rats; experiment: Repeated CBN dosing (15 days) polysomnography in rats; format: in vivo, rat; details: CBN 10 mg/kg IP daily for 15 days
Description: In the repeated dosing experiment, eight rats were randomly assigned to vehicle condition and eight to the CBN 10 mg/kg condition. Rats were administered the same treatment at ZT13 each day for 15 days, however, telemetry recordings were taken on days 1, 8, and 15 of respective treatments, and the response was compared between subjects.

[2] = Pharmacokinetic analysis of CBN and metabolites in rat plasma and brain (LC-MS/MS); format: in vivo
Description: Rats received 10 mg/kg CBN IP at approximately ZT13. Rats were then anesthetized with isoflurane at selected ZT points (13, 13.5, 14, 15, 17, 19, and 21) and blood was collected by terminal cardiac puncture. Brains were harvested, snap frozen on dry ice and plasma was isolated via centrifugation at 9000 × g for 10 min at 4 °C. All tissues were stored at −80 °C until analysis. CBN and metabolite concentrations in plasma and brain samples were assayed by liquid chromatography-tandem mass spectrometry (LC–MS/MS) using a using a Shimadzu Nexera LC-30AD UHPLC system coupled to a Shimadzu SPD-20AV photodiode array detector and a Shimadzu LC–MS-8040 triple-quadrupole mass spectrometer, equipped with an electrospray ionization (ESI) source (Shimadzu Corp.; Kyoto, Japan) as described previously.
LC-MS/MS. Plasma samples (50 µL) were spiked with internal standard (12.5 µg/mL d3-THC, 5 µL) and protein precipitation was achieved by vortex-mixing with a 3x volume of ice-cold acetonitrile. The organic layer was isolated by centrifugation (6000 g for 10 min, 4 °C) and evaporated to dryness using N2 gas. Samples were reconstituted in acetonitrile (90 µL) and 0.1% ammonium formate in water (300 µL) for supported-liquid extraction (SLE) using dichloromethane and methyl tert-butyl ether Biotage Isolute SLE+ columns (Uppsala, Sweden) as previously described. Brain samples were prepared as described for plasma samples with minor modifications. Briefly, each half brain was homogenised in methanol: water (2:1, 10x, w/v) and spiked with d3-THC as an internal standard. Homogenates were centrifuged (20,000 g for 30 min, 4 °C). Supernatants were then extracted and prepared as described above.
Quantification of CBN, 11-OH-CBN and 11-COOH-CBN in plasma and brain samples was performed by comparing experimental samples to eight-point standard curves prepared with known amounts of cannabinoid. Plasma and brain concentrations at each time point were averaged and pharmacokinetic parameters were calculated by noncompartmental analysis. Elimination rate constants were determined by linear regression of the terminal component of the concentration-time curve using GraphPad Prism 8.2 (La Jolla, USA). The log-linear trapezoidal method was used to calculate the area under concentration-time curve using equations described previously.

[3] = biological target: T1, human CB2 receptors (Homo sapiens, UniProt P34972); experiment: Membrane potential (GIRK) assay in AtT20 cells, human CB2; format: cell-based; details: at 10 µM; normalized to 1 µM CP 55,940
T1 construct: expressed in transfected cells; host or cells: mouse AtT20 FlpIn cells
T1 sequence (P34972 whole entry): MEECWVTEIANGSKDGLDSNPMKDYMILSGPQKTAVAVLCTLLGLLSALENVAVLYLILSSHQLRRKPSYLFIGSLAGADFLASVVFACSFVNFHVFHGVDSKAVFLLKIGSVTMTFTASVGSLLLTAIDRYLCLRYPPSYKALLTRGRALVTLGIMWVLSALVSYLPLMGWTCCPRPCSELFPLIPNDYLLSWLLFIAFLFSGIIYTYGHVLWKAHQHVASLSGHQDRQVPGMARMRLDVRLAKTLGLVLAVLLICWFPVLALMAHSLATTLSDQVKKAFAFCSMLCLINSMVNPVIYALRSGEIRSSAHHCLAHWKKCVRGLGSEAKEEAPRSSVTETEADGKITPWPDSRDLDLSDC

[4] = system: non-clinical sample of poor sleepers; parameters: method as in PMID 37796540; details: 20 mg CBN alone, self-reported measures, vs placebo; cited from earlier work
[5] = system: rats; parameters: method as in PMID 168604; details: cited from earlier work
[6] = system: rats; details: cited from earlier work
[7] = cited from earlier work
[8] = rats, oral vs IP of the current study; cited from earlier work
[9] = biological target: T2, human CB1 receptors (Homo sapiens, UniProt P21554); parameters: expressed in transfected cells; method as in PMID 7565624, PMID 9690851; details: some studies; cited from earlier work
T2 sequence (P21554 whole entry): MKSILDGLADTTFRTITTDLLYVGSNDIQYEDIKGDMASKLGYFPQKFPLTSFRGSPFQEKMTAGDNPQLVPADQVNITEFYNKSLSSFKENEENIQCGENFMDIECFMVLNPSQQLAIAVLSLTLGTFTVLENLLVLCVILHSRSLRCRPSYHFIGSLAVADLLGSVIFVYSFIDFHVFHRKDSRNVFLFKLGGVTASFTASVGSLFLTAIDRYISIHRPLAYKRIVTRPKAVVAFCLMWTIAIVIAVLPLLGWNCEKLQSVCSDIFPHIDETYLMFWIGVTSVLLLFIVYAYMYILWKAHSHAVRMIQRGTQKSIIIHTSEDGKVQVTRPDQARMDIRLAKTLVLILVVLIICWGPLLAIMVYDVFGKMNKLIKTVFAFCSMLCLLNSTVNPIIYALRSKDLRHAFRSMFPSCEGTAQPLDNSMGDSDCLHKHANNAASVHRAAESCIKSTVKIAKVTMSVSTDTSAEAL

[10] = system: male Long-Evans rats; experiment: Acute polysomnography (wireless EEG/EMG telemetry) in rats
[11] = biological target: T2, human CB1 receptors; experiment: cell-based; format: cell-based; parameters: expressed in transfected cells; host or cells: mouse AtT20 FlpIn cells
[12] = days 1, 8, 15, not subject to tolerance
[13] = rats, 10 and 30 mg/kg CBN IP, CBN 99.2% pure with 0.8% Δ8-THC, ref Järbe et al (1987)
[14] = acute IP at ZT13 vs vehicle, CBN 10, 30, 100 mg/kg, 11-OH-CBN 1, 3, 10 mg/kg
[15] = acute IP at ZT13 vs vehicle, CBN 10, 30, 100 mg/kg, zolpidem 10 mg/kg, 11-OH-CBN 1, 3, 10 mg/kg

With `CCCCCc1cc(O)c2c(c1)OC(C)(C)c1ccc(C)cc1-2` [CBN, cannabinol] the “% NREM” value ([1]; days 1, 8, 15) was “increased % NREM initially on days 1 and 8, however this effect was diminished by day 15”, the “% REM” value ([1]; days 1, 8, 15) was “affected” and the “% quiet wake” value ([1]; days 1, 8, 15) was “affected”. The REM bout duration ([1]; days 1, 8, 15) was “affected”, the REM bout number ([1]; days 1, 8, 15) was “affected” and the total wake time ([1]; days 1, 8, 15) was “decreased”. The “NREM sleep onset latency” value ([1]; days 1, 8, 15, main effect) was “increased”, the “REM sleep onset latency” value ([1]; days 1, 8, 15, main effect) was “increased” and the NREM bout duration [1, 12] was “increased”. The NREM bout number [1, 12] was “decreased”, the “% active wake” value ([1]; days 1, 8, 15, subject to tolerance) was “decreased” and the “total sleep time over days” value ([1]; recordings days 1, 8, 15, between-subjects vs vehicle, n = 8) was “increased”. It also gave a Tmax ([2]; ip, rat brain after CBN 10 mg/kg, read-out: brain Tmax) of 2 h, a Tmax ([2]; ip, rat plasma after CBN 10 mg/kg, read-out: plasma Tmax (converted)) of 0.5 h and a half-life ([2]; ip, rat, after CBN 10 mg/kg, similar in plasma and brain, read-out: half-life in plasma and brain (converted)) of ~2 h. For the same compound, the “Brain AUC∞” value ([2]; rat brain after CBN 10 mg/kg IP, analyte as labelled) was 1623 pg hour/mg brain, the “Brain Cmax” value ([2]; rat brain after CBN 10 mg/kg IP, analyte as labelled, n = 4) was 373 ± 26 pg/mg brain and the half-life ([2]; rat brain after CBN 10 mg/kg IP, analyte as labelled, read-out: Brain t½ (converted)) was 2.2 h. For the same compound, the “Brain Cmax” value ([2]; rat brain following systemic administration of CBN) was 1.2 µM, the “Plasma AUC∞” value ([2]; rat plasma after CBN 10 mg/kg IP, analyte as labelled) was 775 ng·h/mL and the Cmax ([2]; rat plasma after CBN 10 mg/kg IP, analyte as labelled, n = 4) was 374 ± 34 ng/mL. It also gave a half-life ([2]; rat plasma after CBN 10 mg/kg IP, analyte as labelled, read-out: Plasma t½ (converted)) of 1.93 h, a Brain/plasma ratio ([2]; rat, after CBN 10 mg/kg IP, analyte as labelled) of ~2 and a Kp ([2]; rat, brain and plasma, ip, 10 mg/kg, rat, after CBN 10 mg/kg IP, analyte as labelled, read-out: Brain/plasma ratio) of 2.09. The Cmax ([2]; rat, plasma, intraperitoneal, rats, 10 mg/kg CBN dose) was 374 ng/mL, the “activity at CB2” value [3] was < 20% and the “number of awakenings and overall sleep disturbance” value [4] was “significantly reduced”. For the same compound, the sleep onset latency [4] was “did not influence”, the pentobarbital-induced sleep time [5] was “prolonged” and the “body temperature or locomotor activity” value ([6]; CBN up to 80 mg/kg IP, ref Fernandes et al (1974)) was “did not influence”. The body temperature [6, 13] was “reduced”, the locomotor activity [6, 13] was “suppressed” and the “highest plasma CBN concentration (Cmax) following cannabis smoking” value [7] was 11.6 ng/mL. For the same compound, the “plasma exposures (AUC), oral lower than intraperitoneal at the same dose” value [8] was ~5 fold, the “activity at human CB1 receptors” value [9] was “inactive” and the “% NREM sleep compared to vehicle” value ([10]; CBN 10 mg/kg and 100 mg/kg, various time points from ZT16–20) was “significantly increased”. For the same compound, the “cumulative total sleep time” value ([10]; CBN 10 mg/kg dose only, from ZT17) was “significantly increased”, the “NREM delta power at specific time points” value ([10]; CBN 30 mg/kg and 100 mg/kg at ZT17 and 18, zolpidem 10 mg/kg at ZT13 and 14) was “increase” and the NREM delta power ([10]; EEG power spectra, overall effect, acute IP, CBN 10, 30, 100 mg/kg, zolpidem 10 mg/kg, 11-OH-CBN 1, 3, 10 mg/kg) was “Neither CBN nor zolpidem had robust effects”. The REM theta power ([10]; EEG power spectra, acute IP, CBN 10, 30, 100 mg/kg, zolpidem 10 mg/kg, 11-OH-CBN 1, 3, 10 mg/kg) was “increased”, the “delayed onset of action on % NREM sleep, time post-dosing” value ([10]; acute IP at ZT13) was 3 to 4 h and the total sleep time ([10]; acute IP at ZT13 (dark phase) vs vehicle, CBN 10, 30, 100 mg/kg, zolpidem 10 mg/kg, 11-OH-CBN 1, 3, 10 mg/kg, n = 8) was “increased”. The “cumulative NREM time” value [10, 14] was “biphasic effect”, the “cumulative REM time” value [10, 14] was “similarly influenced” and the “% NREM sleep” value [10, 15] was “increased”. The “% REM sleep” value [10, 15] was “initially suppressed % REM, before it increased % REM at ZT17-18”, the “% active wake” value [10, 15] was “decreased” and the “% quiet wake” value [10, 15] was “affected”. The “NREM sleep onset latency” value [10, 15] was “did not affect”, the REM bout duration [10, 15] was “initially decreased REM bout duration and then increased duration of REM bouts” and the REM bout number [10, 15] was “biphasically influenced”. For the same compound, the “REM sleep onset latency” value [10, 15] was “increased”, the “cumulative total sleep time” value [10, 15] was “biphasic effects” and the “mean duration of NREM bouts per hour” value [10, 15] was “increased”. The “number of NREM bouts per hour” value [10, 15] was “decreased”, the total wake time [10, 15] was “decreased” and the body temperature ([10]; subcutaneous, telemetry, acute IP, CBN 10, 30, 100 mg/kg, zolpidem 10 mg/kg, 11-OH-CBN 1, 3, 10 mg/kg) was “did not robustly effect”. The locomotor activity counts ([10]; telemetry, acute IP, CBN 10, 30, 100 mg/kg, zolpidem 10 mg/kg, 11-OH-CBN 1, 3, 10 mg/kg) was “decreased”, the EC50 [11] was 3.98 µM and the “activity at CB1 receptors (in words)” value [11] was “low activity”. It also gave an Emax ([11]; AtT20, read-out: maximal response (Emax)) of 29 ± 3%.
